# Experimental data published in PubChem BioAssay (NCI).
#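 Method: 48-hour compound exposure of cells in 96-well plates, five concentrations, linear interpolation of endpoints. The concentration for 50% growth inhibition is given as GI50. TGI is the concentration that stops growth completely.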
# Tests used:
# Experiment in all cases: inhibition of tumour cell growth, NCI panel, 48 h
# DU-145 prostate = tested on: DU-145 prostate
# HCC-2998 colon = tested on: HCC-2998 colon
# HCT-15 colon = tested on: HCT-15 colon
# HOP-92 NSCLC = tested on: HOP-92 NSCLC
# HT29 colon = tested on: HT29 colon
# LOX IMVI melanoma = tested on: LOX IMVI melanoma
# NCI/ADR-RES ovarian = tested on: NCI/ADR-RES ovarian
# PC-3 prostate = tested on: PC-3 prostate
# T-47D breast = tested on: T-47D breast
# TK-10 renal = tested on: TK-10 renal
SMILES,GI50 (DU-145 prostate),TGI (DU-145 prostate),GI50 (HCC-2998 colon),TGI (HCC-2998 colon),GI50 (HCT-15 colon),TGI (HCT-15 colon),GI50 (HOP-92 NSCLC),TGI (HOP-92 NSCLC),GI50 (HT29 colon),TGI (HT29 colon),GI50 (LOX IMVI melanoma),TGI (LOX IMVI melanoma),GI50 (NCI/ADR-RES ovarian),TGI (NCI/ADR-RES ovarian),GI50 (PC-3 prostate),TGI (PC-3 prostate),GI50 (T-47D breast),TGI (T-47D breast),GI50 (TK-10 renal),TGI (TK-10 renal)
CCCN(CCC)CCCNCc1cc(I)cc(C)c1O,19.4 µM,42 µM,20.9 µM,36.1 µM,15.3 µM,29.7 µM,5.04 µM,18.6 µM,7.21 µM,20 µM,14.6 µM,27.7 µM,15.4 µM,29.8 µM,15.1 µM,28.4 µM,15.9 µM,42.1 µM,16.1 µM,30.6 µM
CC(=O)N1CCN(C2=Nc3ccccc3CO2)C1=S,> 100 µM,> 100 µM,26.9 µM,97.2 µM,57.8 µM,> 100 µM,34 µM,> 100 µM,89.6 µM,> 100 µM,52.4 µM,> 100 µM,> 100 µM,> 100 µM,87.6 µM,> 100 µM,33 µM,> 100 µM,> 100 µM,> 100 µM
Cc1cc(C)nc(NC(N)=NCCc2ccccc2)n1,3.4 µM,> 100 µM,8.41 µM,30.6 µM,5.09 µM,> 100 µM,3.97 µM,73.1 µM,3.02 µM,> 100 µM,2.03 µM,44.3 µM,31 µM,> 100 µM,3.88 µM,> 100 µM,2.35 µM,43.6 µM,17.6 µM,> 100 µM
O=C(c1ccccc1)c1c(NCC(O)CN2CCCC2)n(Cc2ccccc2)c(=O)n(Cc2ccccc2)c1=O (configuration not stated),17.8 µM,34.7 µM,20.5 µM,36.5 µM,17 µM,32.2 µM,,,17.3 µM,33.6 µM,15.7 µM,29.4 µM,19.5 µM,55.3 µM,17.5 µM,36.6 µM,21.3 µM,45.7 µM,19.3 µM,41.6 µM
CCSc1nnc2c(-c3ccccc3)n[nH]c2n1,,> 100 µM,,,,> 100 µM,,> 100 µM,,> 100 µM,,> 100 µM,,> 100 µM,,> 100 µM,,> 100 µM,,> 100 µM
COc1cccc([C@H]2CC(=O)c3cc4c(cc3N2)OCO4)c1,0.067 µM,13.8 µM,0.0283 µM,0.115 µM,0.0434 µM,> 100 µM,,> 100 µM,,0.425 µM,0.273 µM,> 100 µM,0.036 µM,,0.0927 µM,> 100 µM,,> 100 µM,,> 100 µM
CC(C)(C)OC(=O)NCCNC1=CC(=O)c2nc3ccccc3c3ccnc1c23,22.7 µM,80.9 µM,,,19.3 µM,47.9 µM,17.9 µM,42.5 µM,17.9 µM,43.8 µM,,,23.3 µM,74.5 µM,15.1 µM,49.2 µM,25.8 µM,> 100 µM,32.4 µM,99.7 µM
NS(=O)(=O)c1ccc(NC(=O)c2ccc(NC3=C(Cl)C(=O)N(Cc4ccccc4)C3=O)cc2)cc1,17 µM,30.6 µM,,,13.7 µM,69.4 µM,10.9 µM,31.3 µM,5.92 µM,17 µM,3.35 µM,39 µM,19.6 µM,43.3 µM,12.8 µM,34 µM,18.4 µM,> 100 µM,> 100 µM,> 100 µM
CC1=NN(C(=O)c2ccccc2O)C(=O)/C1=C/c1ccc([N+](=O)[O-])cc1,0.327 µM,> 100 µM,,,0.932 µM,,0.609 µM,> 100 µM,4.22 µM,> 100 µM,0.854 µM,> 40.9 µM,0.449 µM,,0.371 µM,> 100 µM,0.222 µM,> 100 µM,4.83 µM,> 100 µM
COc1cc2c(cc1OC)C13CCN4C=C5CCOC6CC(=O)N2C1C6C5CC43 (configuration not stated),,> 100 µM,,,,> 100 µM,,> 100 µM,,> 100 µM,,> 100 µM,,> 100 µM,,> 100 µM,,> 100 µM,,> 100 µM
COc1cc(-c2nn3c(/C=C4/C(=O)Nc5ccccc54)c(-c4ccc(C)cc4)nc3s2)cc(OC)c1OC,2.55 µM,> 100 µM,> 100 µM,> 100 µM,2.68 µM,> 100 µM,0.42 µM,8.99 µM,,,,,3.05 µM,> 100 µM,81.1 µM,> 100 µM,3.13 µM,> 100 µM,1.69 µM,4.38 µM
C=C(CNC(=O)Nc1ccc(-c2ccccc2)cc1)c1ccc(C(=O)Nc2ccccc2N)cc1,27.7 µM,> 100 µM,> 100 µM,> 100 µM,70.4 µM,> 100 µM,,,> 100 µM,> 100 µM,> 100 µM,> 100 µM,58.3 µM,> 100 µM,51.5 µM,> 100 µM,> 100 µM,> 100 µM,> 100 µM,> 100 µM
Nc1ncnc2c1ncn2C1OC(COP(=O)(O)CP(=O)(O)O)C(O)C1O (configuration not stated),,> 100 µM,,> 100 µM,,> 100 µM,,,,> 100 µM,,> 100 µM,,> 100 µM,,> 100 µM,,> 100 µM,,> 100 µM
COc1cc(/C(Cl)=C/C=C/C(=O)c2c(C)[n+]([O-])c3ccc(Cl)cc3[n+]2[O-])cc(OC)c1OC,11.8 µM,> 50 µM,16.7 µM,> 50 µM,7.35 µM,> 50 µM,4.7 µM,28.1 µM,2.07 µM,9.1 µM,1.77 µM,7.54 µM,1.97 µM,> 50 µM,3.58 µM,> 50 µM,10.7 µM,> 50 µM,,
